The target of assay [1] is T1, IMPDH II (Homo sapiens, UniProt P12268). The assay is described as follows: IC50 by slightly different method: enzyme rate on HITACHI 917 as in Examples 20 and 29, no antibody, saline sample. Type of assay: biochemical. The arrangement: made in house; host or cells: E. coli. Conditions: values marked *: HITACHI 917 method. How it is done: One liter of an enzyme reagent, or second reagent, was prepared as follows. Approximately 800 ml deionized water was dispensed into a container and 168.8 grams of NaTAPSO was added and completely dissolved. Next, 1.15 grams of TCEP was dissolved. Next 31.4 grams of IMP was dissolved, then 2.23 grams of Na2EDTA were dissolved. Next 1.0 gram of SUTTOCIDE A was dissolved. The volume was adjusted to one liter with deionized water. Enough recombinant human IMPDH-II was added (as a 35% ammonium sulfate precipitate of an E. coli lysate supernatant) and dissolved completely in order to achieve a change in absorbance at 340 nm of 780×10^−4 over 5 minutes at 37° C. […]
(§1) An HITACHI 917 analyzer (Roche Diagnostics Corp., Indianapolis) was programmed to dispense 3 μl of sample and 150 μl of antibody reagent into a 37° C. cuvette, which were then mixed and incubated for 5 minutes after which time 150 μl of enzyme reagent was added and mixed. The rate at 340 nm (mA/min) was calculated during the period 3 minutes 13 seconds to 4 minutes 42 seconds (read window 29-34) following enzyme reagent addition.
One liter of a second reagent was prepared as follows. […] Enough recombinant human IMPDH-II was added (as a 35% ammonium sulfate precipitate of an E. coli lysate supernatant) and dissolved completely in order to achieve a change in absorbance at 340 nm of 3100×10^−4 over 5 minutes at 37° C. […]

Assay [2] has as its target T1, IMPDH II. The assay is described as follows: Inhibition constants of ligand inhibitors: NADH formation at 340 nm, 10 minutes, 40° C. It is filed as biochemical. Conditions: IMPDH II 0.00065 U/ml, non-linear curve fit.
In assay [3] the target is T1, IMPDH II. The assay is described as follows: Homogeneous enzyme immunoassay with ligand-inhibitor conjugate (thyroxine and theophylline). It is filed as biochemical. The arrangement: made in house; host or cells: E. coli. Conditions: compared with MPA-theophylline. The method, then: as §1
Saline samples spiked with theophylline were assayed using the method of the present invention. Theophylline (Sigma Chemical) was first dissolved in saline (1 mg/10 ml) and then diluted to achieve concentrations of 0, 5, 10, 20, 40 and 50 μg/ml. An HITACHI 717 analyzer (Roche Diagnostics Corp., Indianapolis) was programmed to dispense 3 μl of sample and 150 μl of first reagent into a 37° C. cuvette, which were then mixed and incubated for 5 minutes, after which time 150 μl of second reagent was added and mixed. The difference in absorbance at 340 nm was calculated from the initial addition of the second reagent to 5 minutes following the second reagent addition.
J. Org. Chem. 61, 2236-2241, (1996).

For another assay, the system named is IMPDH. The assay is described as follows: Sensitivity of mycophenolic acid inhibition of IMPDH. It is filed as biochemical.
For a further assay, the target named is IMPDH-I (Homo sapiens, UniProt P20839). Conditions: read-out: Ki (IC50), J. Biol. Chem. 268, 27286-27290 (1993); cited from earlier work.
IMPDH-I, sequence (P20839 whole entry): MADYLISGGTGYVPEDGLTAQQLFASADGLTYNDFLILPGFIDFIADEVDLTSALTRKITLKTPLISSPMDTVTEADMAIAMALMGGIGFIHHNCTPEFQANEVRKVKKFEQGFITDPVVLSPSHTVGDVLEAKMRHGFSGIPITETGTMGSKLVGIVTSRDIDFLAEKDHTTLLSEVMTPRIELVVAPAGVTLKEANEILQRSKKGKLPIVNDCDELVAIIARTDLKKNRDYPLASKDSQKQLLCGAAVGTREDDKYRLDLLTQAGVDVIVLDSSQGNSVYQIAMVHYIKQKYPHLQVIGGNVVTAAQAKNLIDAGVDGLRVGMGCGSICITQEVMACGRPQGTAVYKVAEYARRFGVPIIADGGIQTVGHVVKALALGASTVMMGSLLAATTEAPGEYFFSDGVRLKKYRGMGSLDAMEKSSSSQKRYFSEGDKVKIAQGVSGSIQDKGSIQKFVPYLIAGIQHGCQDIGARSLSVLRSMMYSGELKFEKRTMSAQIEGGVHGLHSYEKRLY
Assay [4] addresses T1, IMPDH II. The assay is described as follows: IMPDH activity as a function of ligand-inhibitor conjugate, antibody and analyte concentration (HITACHI 717, NADH at 340 nm). It is filed as biochemical. The arrangement: made in house; host or cells: E. coli. How it is done:
One liter of an antibody reagent, or first reagent, was prepared as follows. Approximately 800 ml deionized water was dispensed into a container and 6.0 grams of ACES were added and dissolved. The pH was adjusted to 6.0 with 2N NaOH. Then 0.53 grams NAD were added and dissolved completely. Next 10 ml ascites anti-MPA monoclonal antibody was added. Then 0.95 grams sodium azide was added and dissolved, and finally 1.0 gram of SUTTOCIDE A (GAF Chemicals Corp.) was added and dissolved. The volume was adjusted to one liter with deionized water.
One liter of an enzyme reagent, or second reagent, was prepared as follows. Approximately 800 ml deionized water was dispensed into a container and 56.3 grams of NaTAPSO was added and completely dissolved. Then 81.6 grams of sodium acetate-3H2O were added and dissolved. Next, 1.15 grams of TCEP were added and dissolved. Next 0.319 grams of IMP were added and dissolved, then 2.23 grams of Na2EDTA were added and dissolved. Next 1.0 gram of SUTTOCIDE A was added and dissolved. The volume was adjusted to one liter with deionized water. Approximately 13.4 ml of recombinant human IMPDH-II were added (E. coli lysate) and dissolved completely in order to achieve a change in absorbance at 340 nm of 4400×10^−4 over 5 minutes at 37° C. Next 0.002 grams of ligand-inhibitor conjugate (MPA-MPA, Example 42) were added and dissolved.
Human plasma samples spiked with mycophenolic acid were assayed for MPA using the present invention. An HITACHI 717 analyzer (Roche Diagnostics Corp. Indianapolis) was programmed to dispense 3 μl of sample and 150 μl of antibody reagent into a 37° C. cuvette, which were then mixed and incubated for 5 minutes after which time 150 μl of enzyme reagent was added and mixed. The difference in absorbance at 340 nm was calculated from the initial addition of enzyme reagent to 5 minutes following enzyme reagent addition.
With sample set A, the reagents contained no antibody or ligand-inhibitor and produced maximum IMPDH activity. With sample set B, the enzyme reagent contained ligand inhibitor and was used to show the effect of ligand inhibitor on IMPDH activity.

Take “5′-[(theophylline-8-butyramidoethylaminocarbonyloxy)-isoprenyl]-MPA [compound 20]”: the IC50 (usually the concentration at which inhibition is half-maximal) at IMPDH II [1] amounted to 0.25 µM. This counts as sub-micromolar.
Regarding “5′-[(gentamicin[C1a]-N^1-terephthaloyl)-amino-isoprenyl]-MPA [U]”, the midpoint of inhibition against IMPDH II [2], the IC50, lay at 0.27 µM.
In turn, “5′-[(isoprenyloxycarbonylaminoethyleneamido)-thyroxine]-MPA [compound 11]” yielded an IC50 at IMPDH II [1] of 0.083 µM. In addition, the “sensitivity in an immunoassay” value at IMPDH II [3] is given as “greater sensitivity”.
On to “5′-(digoxigenin-3-yl-β-amidomethyl)-MPA [16A]”, for which the IC50 at IMPDH II [2] is 0.17 µM.
At IMPDH II [2], “5′-[(digoxigenin-3-yl)-oxymethylcarbonyl-DADOO-carbonylmethyl]-MPA [compound 26]” returned an IC50 of 0.17 µM.
On the same count and under the same terms, for “5′-(digoxigenin-3-yl-β-amidomethyl)-MPA [16B]” the value was 0.068 µM.
At IMPDH II [2], MPA-isoprenyl alcohol [3A] gave an IC50 of 0.048 µM.
On to MPA-isoprenyl alcohol [3B], for which the IC50 on IMPDH II [2] turned out to be 0.013 µM.
Consider `COc1c(C)c2c(c(O)c1C/C=C(\C)CCC(=O)O)C(=O)OC2` [MPA, mycophenolic acid], for which, in the assay on IMPDH, the “sensitivity of mycophenolic acid inhibition” value fell in the range of 10 to 20 nM. Besides, the Ki (commonly the equilibrium dissociation constant of an inhibitor or competing ligand from its target) at IMPDH-I is 0.037 µM. In addition, the “ΔA × 10^−4 @ 340 nm” value is listed as 1939 × 10^−4 at IMPDH II [4] (set A: sample MPA 5 μg/ml, no anti-MPA, no MPA—MPA); 541 × 10^−4 on IMPDH II [4] (set A: sample MPA 10 μg/ml, no anti-MPA, no MPA—MPA); 4075 × 10^−4 at IMPDH II [4] (set E: sample MPA 5 μg/ml, anti-MPA 1:100, no MPA—MPA); 3667 × 10^−4 on IMPDH II [4] (set E: sample MPA 10 μg/ml, anti-MPA 1:100, no MPA—MPA).
“5′-[(gentamicin[C1a]-N^1-carbonyl-oxy)-isoprenyl]-MPA” displayed an IC50 against IMPDH II [2] of 0.66 µM.
The compound “5′-[(phenytoin-3-butyramido)-isoprenyl]-MPA” had an IC50 against IMPDH II [2] of 0.088 µM. Compared with the last compound, the IC50 is about 7.5-fold lower.

Source of the values: patent US6811998B2, “Conjugates of uncompetitive inhibitors of inosine monophosphate dehydrogenase” (priority 1999, dated 2004).
